Results reported in patent publication EP0147146A2, “Enhancement of transdermal drug delivery” (AMERICAN HOME PRODUCTS CORPORATION, priority 1983, dated 1985).
Counter-ions that a name gives are not always drawn.

Assay: in-vitro percutaneous transfer test with nude mouse skin in a diffusion cell
Format: in vitro ADME
Procedure: The test formulation was first impregnated into 1-inch diameter circles of a thin non-woven rayon fabric usually in amounts representing about 20 mg or more per cm^2 of skin. The impregnated fabric was applied to the outside or epidermal side of the skin while the inside or tissue side of the skin was exposed to an aerated and stirred volume of Ringer's injection fluid maintained at about 37° C. Samples were taken at intervals from the stirred solution and assayed for drug content. The calculated total amount of percutaneously transferred drug is expressed as mg drug per cm^2 of exposed skin.
Two circles of non-woven fabric were impregnated with each formulation (designated A1, A2 and B1, B2 respectively) and tested for percutaneous drug transfer across nude mouse skin.
Two circles of nonwoven fabric were impregnated with each formulation, so as to contain 2-3 mg of conjugated estrogens. These were applied to nude mouse skins (6 em^2 exposed surface) for transdermal penetration tests. The average of duplicate tests is given below, in units of µg of transferred estrogen per cm^2 of exposed skin surface.

## C[C@]12CC[C@@H]3c4ccc(OS(=O)(=O)O)cc4CC[C@H]3[C@@H]1CC[C@@H]2O [17-B -estradiol-3-sodium sulfate]
  flux rates of formulations containing menthol: significantly higher flux rates

## CCc1cccc2c3c([nH]c12)C(CC)(CC(=O)O)OCC3 (stereo not drawn) [etodolac, 1.8-diethyl-1,3,4,9-tetrahydropyrano[3,4-b] indole-1-acetic acid]
With vs without 5% menthol in a glycerol/propylene glycol vehicle, nude mouse skin
  increase in percutaneous transfer in the presence of menthol: about a three fold increase

## C[C@]12CC[C@@H]3c4ccc(O)cc4CC[C@H]3[C@@H]1CC[C@@H]2O [17-β -estradiol]
Lipophilic vehicles, nude mouse skin
  percutaneous transfer with and without menthol: no significant differences
